Patent publication US4442044A, “Process for preparing monoesters and diesters of N-alkyl substituted amino methyl phosphonic acid” (priority 1983, dated 1984)

Key:
Format in all cases: in vivo
Lambsquarters [1] = experiment: pre-emergent herbicidal activity, soil incorporation; conditions: Table III, 2 WAT, 11.2 kg/h
Text: (§1) A good grade of top soil is placed in aluminum pans and compacted to a depth of 0.95 to 1.27 cm. from the top of each pan. A predetermined number of seeds or vegetative propagules of each of several plant species are placed on top of the soil in each pan and then pressed down. Herbicidal compositions prepared as in the previous example are applied by admixture with or incorporation in the top layer of soil.
(§2) In this method, the soil required to cover the seeds and propagules is weighed and admixed with a herbicidal composition containing a known amount of the active ingredient (compound of this invention). The pans are then filled with the admixture and leveled. Watering is carried out by permitting the soil in the pans to absorb moisture through apertures in the pan bottoms. The seed and propagule containing pans are placed on a wet sand bench and maintained for approximately two weeks under ordinary conditions of sunlight and watering. At the end of this period, the number of emerged plants of each species is noted and compared to an untreated control.
(§3) The pre-emergent herbicidal activity index used below is based upon average percent control of each species as follows: […]

Smartweed [2] = experiment: as above; conditions: Table III, 2 WAT, 11.2 kg/h
Text: as §1, §2, §3

Velvetleaf [3] = experiment: as above; conditions: Table III, 2 WAT, 11.2 kg/h
Text: as §1, §2, §3

Downy Brome [4] = experiment: as above; conditions: Table III, 2 WAT, 11.2 kg/h
Text: as §1, §2, §3

Barnyardgrass [5] = experiment: as above; conditions: Table III, 2 WAT, 11.2 kg/h
Text: as §1, §2, §3

Morningglory [6] = experiment: as above; conditions: Table III, 2 WAT, 11.2 kg/h
Text: as §1, §2, §3

Canada Thistle = experiment: as above; conditions: Table III, 2 WAT, 11.2 kg/h
Text: as §1, §2, §3

Johnsongrass = experiment: as above; conditions: Table III, 2 WAT, 11.2 kg/h
Text: as §1, §2, §3

Quackgrass [7] = experiment: as above; conditions: Table III, 2 WAT, 11.2 kg/h
Text: as §1, §2, §3

Yellow Nutsedge [8] = experiment: as above; conditions: Table III, 2 WAT, 11.2 kg/h
Text: as §1, §2, §3

Cocklebur [9] = experiment: as above; conditions: Table III, 2 WAT, 11.2 kg/h
Text: as §1, §2, §3

Panicum Spp = experiment: post-emergent herbicidal activity, greenhouse; conditions: Table II, 4 WAT
Procedure, shortened: (§4)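 Seeds or propagules sown in compacted top soil, grown 2–3 weeks in greenhouse, then sprayed with compound solution/suspension containing ~0.4% emulsifier at tabulated rates. Injury scored visually versus untreated controls at ~2 and 4 weeks after treatment, expressed as a herbicidal activity index.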

Soybean = experiment: post-emergent herbicidal activity, greenhouse; conditions: Table II, 4 WAT
Procedure, shortened: as §4

Crabgrass = experiment: post-emergent herbicidal activity, greenhouse; conditions: Table II, 4 WAT
Procedure, shortened: as §4

Lambsquarters [10] = experiment: post-emergent herbicidal activity, greenhouse; conditions: 4 WAT
Procedure, shortened: as §4

Smartweed [11] = experiment: post-emergent herbicidal activity, greenhouse; conditions: 4 WAT
Procedure, shortened: as §4

Velvetleaf [12] = experiment: post-emergent herbicidal activity, greenhouse; conditions: 4 WAT
Procedure, shortened: as §4

Wheat = experiment: post-emergent herbicidal activity, greenhouse; conditions: Table II, 4 WAT
Procedure, shortened: as §4

Downy Brome [13] = experiment: post-emergent herbicidal activity, greenhouse; conditions: Table II, 4 WAT
Procedure, shortened: as §4

Barnyardgrass [14] = experiment: post-emergent herbicidal activity, greenhouse; conditions: 4 WAT
Procedure, shortened: as §4

Morningglory [15] = experiment: post-emergent herbicidal activity, greenhouse; conditions: 4 WAT
Procedure, shortened: as §4

Sorghum = experiment: post-emergent herbicidal activity, greenhouse; conditions: Table II, 4 WAT
Procedure, shortened: as §4

Sugar Beet = experiment: post-emergent herbicidal activity, greenhouse; conditions: Table II, 4 WAT
Procedure, shortened: as §4

Rice = experiment: post-emergent herbicidal activity, greenhouse; conditions: Table II, 4 WAT
Procedure, shortened: as §4

Quackgrass [16] = experiment: post-emergent herbicidal activity, greenhouse; conditions: Table I, 4 WAT, 11.2 kg/h
Procedure, shortened: as §4

Yellow Nutsedge [17] = experiment: post-emergent herbicidal activity, greenhouse; conditions: Table I, 4 WAT, 5.6 kg/h
Procedure, shortened: as §4

Hemp Sesbania = experiment: post-emergent herbicidal activity, greenhouse; conditions: Table II, 4 WAT
Procedure, shortened: as §4

Cocklebur [18] = experiment: post-emergent herbicidal activity, greenhouse; conditions: Table II, 4 WAT
Procedure, shortened: as §4

Wild Buckwheat = experiment: post-emergent herbicidal activity, greenhouse; conditions: Table II, 4 WAT
Procedure, shortened: as §4

CCOC(=O)CNCP(=O)(O)OC(C)C#N (stereo not drawn) [Example 5, glycine, N-[[(1-cyanoethoxy)hydroxy-phosphinyl]methyl]ethyl ester]
1 (25-49% control): pre-emergent herbicidal activity index (Yellow Nutsedge [8]) | post-emergent herbicidal activity index (Soybean; 0.28 kg/h) | post-emergent herbicidal activity index (Velvetleaf [12]; Table II, 0.28 kg/h) | post-emergent herbicidal activity index (Wheat; 0.28 kg/h) | post-emergent herbicidal activity index (Downy Brome [13]; 0.28 kg/h) | post-emergent herbicidal activity index (Sugar Beet; 0.28 kg/h) | post-emergent herbicidal activity index (Hemp Sesbania; 0.28 kg/h)
0 (1-24% control): pre-emergent herbicidal activity index (Smartweed [2]) | pre-emergent herbicidal activity index (Velvetleaf [3]) | pre-emergent herbicidal activity index (Downy Brome [4]) | pre-emergent herbicidal activity index (Barnyardgrass [5]) | pre-emergent herbicidal activity index (Morningglory [6]) | pre-emergent herbicidal activity index (Johnsongrass) | pre-emergent herbicidal activity index (Cocklebur [9])
2 (50-74% control): pre-emergent herbicidal activity index (Quackgrass [7]) | post-emergent herbicidal activity index (Soybean; 1.12 kg/h) | post-emergent herbicidal activity index (Lambsquarters [10]; Table II, 0.28 kg/h) | post-emergent herbicidal activity index (Smartweed [11]; Table II, 0.28 kg/h) | post-emergent herbicidal activity index (Velvetleaf [12]; Table II, 1.12 kg/h) | post-emergent herbicidal activity index (Downy Brome [13]; 1.12 kg/h) | post-emergent herbicidal activity index (Morningglory [15]; Table II, 0.28 kg/h) | post-emergent herbicidal activity index (Morningglory [15]; Table II, 1.12 kg/h) | post-emergent herbicidal activity index (Sugar Beet; 1.12 kg/h) | post-emergent herbicidal activity index (Rice; 1.12 kg/h) | post-emergent herbicidal activity index (Hemp Sesbania; 1.12 kg/h) | post-emergent herbicidal activity index (Cocklebur [18]; 0.28 kg/h) | post-emergent herbicidal activity index (Cocklebur [18]; 1.12 kg/h) | post-emergent herbicidal activity index (Wild Buckwheat; 1.12 kg/h)
4 (100% control): post-emergent herbicidal activity index (Panicum Spp; 1.12 kg/h) | post-emergent herbicidal activity index (Panicum Spp; 5.6 kg/h) | post-emergent herbicidal activity index (Soybean; 5.6 kg/h) | post-emergent herbicidal activity index (Crabgrass; 1.12 kg/h) | post-emergent herbicidal activity index (Crabgrass; 5.6 kg/h) | post-emergent herbicidal activity index (Lambsquarters [10]; Table I, 11.2 kg/h) | post-emergent herbicidal activity index (Lambsquarters [10]; Table II, 1.12 kg/h) | post-emergent herbicidal activity index (Lambsquarters [10]; Table II, 5.6 kg/h) | post-emergent herbicidal activity index (Smartweed [11]; Table I, 5.6 kg/h) | post-emergent herbicidal activity index (Smartweed [11]; Table I, 11.2 kg/h) | post-emergent herbicidal activity index (Smartweed [11]; Table II, 1.12 kg/h) | post-emergent herbicidal activity index (Smartweed [11]; Table II, 5.6 kg/h) | post-emergent herbicidal activity index (Velvetleaf [12]; Table I, 11.2 kg/h) | post-emergent herbicidal activity index (Velvetleaf [12]; Table II, 5.6 kg/h) | post-emergent herbicidal activity index (Wheat; 5.6 kg/h) | post-emergent herbicidal activity index (Barnyardgrass [14]; Table I, 5.6 kg/h) | post-emergent herbicidal activity index (Barnyardgrass [14]; Table I, 11.2 kg/h) | post-emergent herbicidal activity index (Barnyardgrass [14]; Table II, 5.6 kg/h) | post-emergent herbicidal activity index (Morningglory [15]; Table I, 11.2 kg/h) | post-emergent herbicidal activity index (Morningglory [15]; Table II, 5.6 kg/h) | post-emergent herbicidal activity index (Sorghum; 5.6 kg/h) | post-emergent herbicidal activity index (Sugar Beet; 5.6 kg/h) | post-emergent herbicidal activity index (Rice; 5.6 kg/h) | post-emergent herbicidal activity index (Quackgrass [16]) | post-emergent herbicidal activity index (Cocklebur [18]; 5.6 kg/h) | post-emergent herbicidal activity index (Wild Buckwheat; 5.6 kg/h)
3 (75-99% control): post-emergent herbicidal activity index (Panicum Spp; 0.28 kg/h) | post-emergent herbicidal activity index (Crabgrass; 0.28 kg/h) | post-emergent herbicidal activity index (Wheat; 1.12 kg/h) | post-emergent herbicidal activity index (Downy Brome [13]; 5.6 kg/h) | post-emergent herbicidal activity index (Barnyardgrass [14]; Table II, 0.28 kg/h) | post-emergent herbicidal activity index (Barnyardgrass [14]; Table II, 1.12 kg/h) | post-emergent herbicidal activity index (Morningglory [15]; Table I, 5.6 kg/h) | post-emergent herbicidal activity index (Sorghum; 0.28 kg/h) | post-emergent herbicidal activity index (Sorghum; 1.12 kg/h) | post-emergent herbicidal activity index (Yellow Nutsedge [17]) | post-emergent herbicidal activity index (Hemp Sesbania; 5.6 kg/h)
0 (0-24% control): post-emergent herbicidal activity index (Rice; 0.28 kg/h) | post-emergent herbicidal activity index (Wild Buckwheat; 0.28 kg/h)
3 (75-100% control): pre-emergent herbicidal activity index (Lambsquarters [1]) | pre-emergent herbicidal activity index (Canada Thistle)
